Laboratory results taken from patent US20250250251A1, “PIPERIDINYLPYRIDINYLCARBONITRILE DERIVATIVES AS INHIBITORS OF GLUTAMINYL-PEPTIDE CYCLOTRANSFERASE AND GLUTAMINYL-PEPTIDE CYCLOTRANSFERASE LIKE PROTEIN” (Boehringer Ingelheim International GmbH, priority 2024, published 2025).
pIC50: −log10 of the molar value. Values belong to the molecule of their own block, whether it stands above or below them.

Legend:
CACO-2 cells = assay: Assay C: permeability in CACO-2 cells; type: in vitro ADME; conditions: pairs with and without 4-fluoropiperidyl, CACO2 cells
Protocol: (§1) Caco-2 cells (1-2×10^5 cells/1 cm^2 area) are seeded on filter inserts (Costar transwell polycarbonate or PET filters, 0.4 μm pore size) and cultured (DMEM) for 10 to 25 days. Compounds are dissolved in appropriate solvent (like DMSO, 1-20 mM stock solutions). […] The transport solution (TL) is applied to the apical or basolateral donor side for measuring A-B or B-A permeability (3 filter replicates), respectively. Samples are collected at the start and end of experiment from the donor and at various time intervals for up to 2 hours also from the receiver side for concentration measurement by HPLC-MS/MS or scintillation counting. Sampled receiver volumes are replaced with fresh receiver solution.
(§2) Efflux ratio (ER)=permeability B−A/permeability A−B

QPCT = target: T1, QPCT (Homo sapiens, UniProt Q16769); assay: Assay A: biochemical QPCT activity assay (MALDI-TOF MS, CD47 peptide substrate); conditions: Table 2, compounds of the invention, read-out: Inhibition of QPCT: IC50
T1 construct: purchased Origine (OriGene) TP700028
T1 sequence (Q16769 29-361): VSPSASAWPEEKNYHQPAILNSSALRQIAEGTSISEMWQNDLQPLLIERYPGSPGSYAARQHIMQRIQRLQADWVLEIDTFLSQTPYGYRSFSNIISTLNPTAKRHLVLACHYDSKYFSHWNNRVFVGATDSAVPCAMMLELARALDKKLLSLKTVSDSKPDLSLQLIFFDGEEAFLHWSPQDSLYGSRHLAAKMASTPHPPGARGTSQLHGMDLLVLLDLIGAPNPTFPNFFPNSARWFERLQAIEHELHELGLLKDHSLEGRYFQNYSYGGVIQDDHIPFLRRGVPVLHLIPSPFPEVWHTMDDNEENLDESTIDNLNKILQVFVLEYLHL
Protocol: (§3) QPCT or QPCTL dependent conversion of N-terminal glutamine to pyroglutamate of CD47 was monitored via MALDI-TOF MS. Test compounds were dissolved in 100% DMSO and serially diluted into clear 1,536-well microtiter plates. Enzymatic reactions were set up in assay buffer containing 20 mM Tris pH 7.5, 0.1 mM TCEP, 0.01% BSA, and 0.001% Tween20. […] The plates were incubated for 10 min in a humidified incubator at 24° C. Subsequently, 2.5 μL of CD47 peptide substrate surrogate (^19[…]^33) was added to each well (final concentration: 10 μM for QPCTL/20 μM for QPCT). The plates were mixed for 30 sec at 1,000 rpm and subsequently incubated for 40 min in a humidified incubator at 24° C. […] The plates were sealed with an adhesive foil, mixed for 30 s at 1,000 rpm and stored at room temperature until preparation of the MALDI target plates. MALDI target plates were prepared as described previously. […] QPCT or QPCTL activity was monitored by calculating the ratio between product and internal standard signals followed by normalization to high (100% activity) and low (0% activity) controls. Determination of compound potencies was obtained by fitting the dose-response data to a four-parameter logistical equation.

QPCTL = target: T2, QPCTL (Homo sapiens, UniProt Q9NXS2); assay: Assay A: biochemical QPCTL activity assay (MALDI-TOF MS, CD47 peptide substrate); conditions: Table 2, compounds of the invention, read-out: Inhibition of QPCTL: IC50
T2 construct: made in house
T2 sequence (Q9NXS2 whole entry, species assumed): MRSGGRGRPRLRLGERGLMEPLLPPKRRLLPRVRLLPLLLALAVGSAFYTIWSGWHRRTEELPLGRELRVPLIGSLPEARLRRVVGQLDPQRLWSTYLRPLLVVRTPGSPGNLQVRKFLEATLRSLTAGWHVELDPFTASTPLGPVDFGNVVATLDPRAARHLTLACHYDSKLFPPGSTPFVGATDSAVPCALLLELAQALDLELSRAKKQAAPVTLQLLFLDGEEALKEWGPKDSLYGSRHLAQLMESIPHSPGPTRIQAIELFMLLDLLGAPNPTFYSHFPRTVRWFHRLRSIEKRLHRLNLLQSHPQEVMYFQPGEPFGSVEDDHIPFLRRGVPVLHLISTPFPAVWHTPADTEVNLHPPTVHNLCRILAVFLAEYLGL
Protocol: as §3

[1] = Assay C: permeability in CACO-2 cells; type: in vitro ADME; conditions: human, pH 7.2, Table 7, compounds of the invention, CACO-2 cells; for efflux ratio: permeability B-A/permeability A-B, read-out: Efflux Ratio
Protocol: as §1, §2

murine hepatocytes = assay: Assay E: stability in murine hepatocytes; type: in vitro ADME, mouse; conditions: Table 12, compounds of the invention, 1 μM, 5% species serum
Protocol: The metabolic degradation of the test compound is assayed in a murine hepatocyte suspension.
Murine hepatocytes (typically cryopreserved) are incubated in an appropriate buffer system (e.g. Dulbecco's modified eagle medium plus 3.5 μg glucagon/500 mL, 2.5 mg insulin/500 mL and 3.75 mg/500 mL hydrocortison) containing 5% species serum.
Following a (typically) 30 min preincubation in an incubator (37° C., 10% CO2) 5 μl of test compound solution (80 μM; from 2 mM in DMSO stock solution diluted 1:25 with medium) are added into 395 μl hepatocyte suspension (cell density in the range 0.25-5 Mio cells/mL, typically 1 Mio cells/mL; final concentration of test compound 1 μM, final DMSO concentration 0.05%).
The cells are incubated for six hours (incubator, orbital shaker) and samples (25 μl) are taken at 0, 0.5, 1, 2, 4 and 6 hours. Samples are transferred into acetonitrile and pelleted by centrifugation (5 min). The supernatant is transferred to a new 96-deepwell plate, evaporated under nitrogen and resuspended.
Decline of parent compound is analyzed by HPLC-MS/MS
CLint is calculated as follows CL_[…]=Dose/AUC=(C0/CD)/(AUD+clast/k)×1000/60. C0: initial concentration in the incubation [μM], CD: cell density of vital cells [10e6 cells/mL], AUD: area under the data [μM×h], clast: concentration of last data point [μM], k: slope of the regression line for parent decline [h−1].
The calculated in vitro hepatic intrinsic clearance can be scaled up to the intrinsic in vivo hepatic Clearance and used to predict hepatic in vivo blood clearance (CL) by the use of a liver model (well stirred model).
[formula] [formula] [formula] • Hepatocellularity, mouse: 120×10e6 cells/g liver • Liver factor, mouse: 55 g/kg bodyweight • Blood flow, mouse: 90 ml/(min×kg)

[2] = system: SIRPα signalling induced by A549 cells; assay: Assay B: SIRPα signalling assay using A549 cells; type: cell-based; conditions: Homo sapiens, Table 4, compounds of the invention, read-out: Inhibition of SIRPα signalling induced by A549 cells: IC50
Protocol: Two cell types are independently used: the Raji cell line (lymphoblast-like human cell line derived from B lymphocytes from a Burkitt's lymphoma patient in 1963) and A549 cells (adenocarcinoma human alveolar basal epithelial cells).
Test compounds were dissolved in 100% DMSO and serially diluted into a white 384-well microtiter cell culture plate (PerkinElmer #60076780 in case of Raji assay; PDL-coated plates Greiner #781945 in case of A549 assay). 5000 Raji cells (ATCC #CC86) or 5000 A549 cells (ATCC #CCL-185) in Assay Complete Cell Plating reagent 30 (DiscoverX 93-0563R30B) were added per well. The assay plate was incubated for 48 h at 37° C., 95% humidity and 5% CO2. 15000 reporter cells (Jurkat PathHunter SIRPαV1, DiscoverX #93-1135C19) were added to each well, and the plate was incubated for 5 h at 37° C., 95% humidity and 5% CO2. Bioassay reagent 1 of the PathHunter Bioassay detection kit (DiscoverX 93-0001) was added to each well of the plate using a multichannel pipette followed by a 15 min incubation at room temperature. Afterwards bioassay reagent 2 was added followed by 60 min incubation at room temperature (incubation in the dark).
The analysis of the data was performed using the luminescence signal generated by beta-galactosidase in the PathHunter reporter cell line. The luminescence measurement was done using a Pherastar Multi-Mode Reader. Dose-response curves & IC50 data were calculated with 4-parameter sigmoidal dose response formula.

[3] = system: SIRPα signalling induced by Raji cells; assay: Assay B: SIRPα signalling assay using Raji cells; type: cell-based; conditions: Homo sapiens, Table 4, compounds of the invention, read-out: Inhibition of SIRPα signalling induced by Raji cells: IC50
Protocol: Bioassay reagent 1 of the PathHunter Bioassay detection kit (DiscoverX 93-0001) was added to each well of the plate using a multichannel pipette followed by a 15 min incubation at room temperature. Afterwards bioassay reagent 2 was added followed by 60 min incubation at room temperature (incubation in the dark).
The analysis of the data was performed using the luminescence signal generated by beta-galactosidase in the PathHunter reporter cell line. The luminescence measurement was done using a Pherastar Multi-Mode Reader.

CYP3A4 mRNA = assay: Assay D: CYP induction screening assay in primary human hepatocytes; type: in vitro ADME; conditions: Table 9, compounds of the invention, 48 h
Protocol: Cryopreserved plateable human hepatocytes (single donor. BioIVT) were thawed and plated in Collagen-I coated 96-well-plates at a cell density of 0.07 million cells per well.
After a 6 h attachment period, the seeding medium was replaced by serum-free William's medium E supplemented with Matrigel (0.25 mg/ml) and allowed to recover overnight. 24 h post-seeding, serum-free Williams E medium containing the test compound at a final concentration of […] and a final DMSO content of 0.1% and 0.1% DMSO (solvent-treated control), respectively, was added to predefined wells. Exposure solutions were renewed after 24 h.
After 48 h of treatment in total, the effect of the test compounds on CYP3A4 mRNA expression was assessed using the QuantiGene Plex Gene Expression Assay. Hepatocytes were lysed and total RNA was extracted using the QuantiGene Sample Processing Kit according to the instructions of the manufacturer.
mRNA quantification was conducted using a customized QuantiGene Plex Panel to analyse CYP3A4 and the housekeeper genes RPL32, EIF4E2 and GUSB according to the instructions of the manufacturer and measured on a Luminex™ instrument. Signal was reported as median fluorescence intensity (MFI), which is proportional to the number of target RNA molecules present in the sample.
For calculation of CYP3A4 mRNA induction, the signal for CYP3A4 was normalized against the geometric mean of the signal obtained for the housekeeper genes for hepatocytes exposed to test compounds in relation to solvent-treated samples according to the following equation: […]

Structure (SMILES): Cn1cnnc1C1(F)CCN(c2c(-c3ccc(F)nc3)ccnc2C#N)CC1 [Example 10 in EP 22188580.9]
CACO2 Perm. (CACO-2 cells): 11.0 10^−6 cm/sec

Structure (SMILES): Cn1cnnc1C1CCN(c2c(C#N)cc(C(F)(F)F)nc2-c2cnc3nn(C(C)(C)C)c(C(F)(F)F)c3c2)CC1 [Example 13 in EP 23189886.7]
CACO2 Perm. (CACO-2 cells): 3.7 10^−6 cm/sec

Structure (SMILES): Cn1cc(-c2cc(C#N)c(N3CCC(F)(c4nncn4C)CC3)c(-c3cnc4nn(C(F)(F)F)cc4c3)n2)cn1 [Example 24]
pIC50 (QPCT): 8.52
pIC50 (QPCTL): 8.70
Papp A→B [1]: 3.4 ×10⁻⁶ cm/s
efflux ratio [1]: 17.9
Mouse Hepatocyte Stability QH (murine hepatocytes): <12%
pIC50 [2]: 7.57
pIC50 [3]: 7.14
n-fold induction of CYP3A4 at 10 μM (CYP3A4 mRNA): 1.1 n-fold

Structure (SMILES): Cc1ncc(-c2cc(C#N)c(N3CCC(F)(c4nncn4C)CC3)c(-c3cnc4nn(C(F)(F)F)cc4c3)n2)cn1 [Example 25]
pIC50 (QPCT): 8.52
pIC50 (QPCTL): 8.52
Papp A→B [1]: 3.1 ×10⁻⁶ cm/s
efflux ratio [1]: 16.8
Mouse Hepatocyte Stability QH (murine hepatocytes): 38%
pIC50 [2]: 7.28
pIC50 [3]: 6.74
n-fold induction of CYP3A4 at 10 μM (CYP3A4 mRNA): 0.8 n-fold

Structure (SMILES): Cn1cnnc1C1(F)CCN(c2c(C#N)cc(C(F)(F)F)nc2-c2cnc3nn(C(C)(C)C)c(C4CC4)c3c2)CC1 [Example 26]
pIC50 (QPCT): 9.00
pIC50 (QPCTL): 9.00
Papp A→B [1]: 17 ×10⁻⁶ cm/s
efflux ratio [1]: 4.8
Mouse Hepatocyte Stability QH (murine hepatocytes): 27%
pIC50 [2]: 7.96
pIC50 [3]: 8.40
n-fold induction of CYP3A4 at 10 μM (CYP3A4 mRNA): 7.9 n-fold

Structure (SMILES): Cn1cnnc1C1CCN(c2c(-c3cnc4nn(C(C)(C)C)cc4c3)ccc(C(F)(F)F)c2C#N)CC1 [Example 32 in EP 23161417.3]
CACO2 Perm. (CACO-2 cells): 0.2 10^−6 cm/sec

Other lines, results leading:

CACO2 Perm. (CACO-2 cells): 2.5 10^−6 cm/sec
Structure (SMILES): Cn1cnnc1C1CCN(c2c(C#N)cc(Cl)cc2-c2cnc3nn(C(C)(C)C)cc3c2)CC1 [Example 17 in EP 23161417.3]

CACO2 Perm. (CACO-2 cells): 66.0 10^−6 cm/sec
Structure (SMILES): Cn1cnnc1C1(F)CCN(c2c(C#N)cc(Cl)cc2-c2ccc(F)nc2)CC1 [Example 18 in EP 23161417.3]

CACO2 Perm. (CACO-2 cells): 18.0 10^−6 cm/sec
Structure (SMILES): Cn1cnnc1C1(F)CCN(c2c(C#N)cc(Cl)cc2-c2cnc3nn(C(C)(C)C)cc3c2)CC1 [Example 19 in EP 23161417.3]

CACO2 Perm. (CACO-2 cells): 1.7 10^−6 cm/sec
Structure (SMILES): Cn1cnnc1C1(F)CCN(c2c(-c3cnc4nn(C(C)(C)C)cc4c3)ccc(C(F)(F)F)c2C#N)CC1 [Example 30 in EP 23161417.3]

CACO2 Perm. (CACO-2 cells): 0.5 10^−6 cm/sec
Structure (SMILES): Cn1cnnc1C1CCN(c2c(C#N)cccc2-c2cnc3nn(C(C)(C)C)cc3c2)CC1 [Example 50 in EP 22216126.7]
